A word on the pKa: it is the negative logarithm of the acid dissociation constant. Higher therefore signals a weaker acid or stronger base.

These results are taken from patent US20250215177A1, “BLOWING AGENT, FOAMING RESIN COMPOSITION, POLYUREA RESIN FOAM, AND PRODUCTION METHOD FOR POLYUREA RESIN FOAM” (MITSUBISHI GAS CHEMICAL COMPANY, INC., priority 2022, published 2025).

Each structure is given as a SMILES string.

Common to all, as to assay type: physicochemical
The nature of series [1]: Percentage increase of mass of amine compound left to stand in air (absorption of carbon dioxide). Particulars: 23° C. and 50% RH. The text has this: Percentage increase of mass of cyclic amine compound (a1) [% by mass]=100×amount of increase of mass of cyclic amine compound (a1)(g)/(mass of cyclic amine compound (a1)(g)+amount of increase of mass of cyclic amine compound (a1)(g)).
[…] By doing so 1,3-BAC and carbon dioxide in the air were reacted to give a blowing agent (carbonate of 1,3-BAC). At that stage, to suppress uneven reaction, the container in which the amine compound was placed was shaken as necessary so as not to leave unreacted 1,3-BAC.
Next, the amount of increase of the mass of 1,3-BAC was measured and the percentage increase of the mass of the amine compound was calculated by the following equation.

A short description of series [2]: Maximum carbon dioxide (CO2) release temperature of amine compound (DSC after CO2 absorption in air). Particulars: amine compound after 24 hours in air at 23° C. and 50% RH; heating rate 10° C./minute, 23 to 250° C., nitrogen. Here is the method:
The cyclic amine compound (a1) with carbon dioxide absorbed is heated at a heating rate of 10° C./minute from 23° C. to 250° C., and the temperature at which the amount of heat absorbed due to desorption of carbon dioxide reaches the maximum is measured, and the temperature is defined as the maximum carbon dioxide release temperature. In this regard the cyclic amine compound (a1) with carbon dioxide absorbed may be prepared by leaving 5 mmol of the cyclic amine compound (a1) to stand in air at 23° C. and 50% RH for 24 hours.
A carbon dioxide detector and a Petri dish were placed in an openable desiccator (inner dimension: 370 mm×260 mm×272 mm). […]
Then the amine compound was taken out of the desiccator to give an amine compound with carbon dioxide absorbed. The maximum carbon dioxide release temperature of the amine compound with carbon dioxide absorbed was measured by subjecting the amine compound to DSC as described below. […] The temperature at which the amount of heat absorbed due to the desorption of carbon dioxide was the maximum was calculated from the DSC curve obtained, and the temperature was determined as the maximum carbon dioxide release temperature of the amine compound.

Series [3] can be described thus: Maximum endothermic temperature of amine compound (DTA). Particulars: heating rate 10° C./minute, 23 to 350° C., nitrogen; evaporation of amine compound. Here is the method:
The cyclic amine compound (a1) is heated at a heating rate of 10° C./minute from 23° C. to 350° C. and the temperature at which the amount of heat absorbed due to evaporation of the amine compound (a1) reaches the maximum is measured, and the temperature is defined as the maximum endothermic temperature of the amine compound (a1).
The maximum endothermic temperature of the amine compound was measured by subjecting the amine compound to DTA as described below. First, […] of the amine compound was performed under conditions of a temperature range of 23 to 350° C., a heating rate of 10° C./minute and a nitrogen atmosphere using a differential thermogravimeter (product name DTG-60 made by Shimadzu Corporation). The temperature at which the amount of heat absorbed due to the evaporation of the amine compound was the maximum was calculated from the DTA curve obtained, and the temperature was determined as the maximum endothermic temperature of the amine compound.

The nature of series [4]: Acid dissociation constant (pKa) of amine compound (potentiometric titration). Conditions: in purified water, 25±2° C. Here is the method: The acid dissociation constant of the amine compound was measured by the following measurement method. • (1) 0.2 g of the amine compound was dissolved in 30 mL of purified water. • (2) The acid dissociation constant (pKa) was calculated by titrating the solution prepared in (1) above with 0.1 N perchloric acid-acetic acid solution using an automatic potentiometric titrator (AT-610 made by Kyoto Electronics Manufacturing Co., Ltd.). The temperature in the measurement was 25±2° C.

The nature of series [5]: Amine value of amine compound (JIS K7237-1995 titration). Conditions: titration with 0.1 N perchloric acid-acetic acid. Here is the method: The amine value was measured by the following measurement method according to JIS K7237-1995. • (1) 0.1 g of the amine compound was dissolved in 20 mL of acetic acid. • (2) The amine value was calculated by titrating the solution prepared in (1) above with 0.1 N perchloric acid-acetic acid solution using an automatic potentiometric titrator (AT-610 made by Kyoto Electronics Manufacturing Co., Ltd.)

As to `NCCN` [Ethylenediamine, ethylenediamine], the “Percentage increase of mass” value in series [1] (CO2 absorption time 1 week) amounted to 44.3 % by mass. Besides, the “Maximum CO2 release temperature” value in series [2] was 103.4 °C. The same compound displayed a Maximum endothermic temperature in series [3] of 126.7 °C. The same compound registered a pKa in series [4] of 9.8.

Regarding `NCC1CCCC(CN)C1` (stereo not shown) [1,3-BAC, 1,3-bis(aminomethyl)cyclohexane], in series [1] (CO2 absorption time 10 weeks), the “Percentage increase of mass” value is given as 22.5 % by mass. This compound also returned an Amine value in series [5] of 789 mgKOH/g.

As for `NCc1cccc(CN)c1` [MXDA, metaxylylenediamine], the Amine value in series [5] is 824 mgKOH/g.
